# Test results taken from patent US10233173B2, “Substituted 1,2,3-triazoles as NR2B-selective NMDA modulators” (JANSSEN PHARMACEUTICA NV, priority 2016, dated 2019).
# Biological target: human GluN1/GluN2B NMDA receptors (Homo sapiens, UniProt Q05586+Q13224)
# Experiment: Cell-based calcium flux (FLIPR) assay on cloned human NR1/NR2B ion channels expressed in mammalian cells
# Conditions: standard assay; glutamate at ~EC80; FLIPR calcium flux
# Procedure, shortened: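 Calcium influx followed by FLIPR fluorescence after 5 min compound exposure and a further 5 min co-agonist challenge: 10 μM glycine with glutamate at ~EC80 (standard) or EC40 (HTS).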
# human GluN1/GluN2B NMDA receptors, sequence (Q13224 27-1484, other chains not shown): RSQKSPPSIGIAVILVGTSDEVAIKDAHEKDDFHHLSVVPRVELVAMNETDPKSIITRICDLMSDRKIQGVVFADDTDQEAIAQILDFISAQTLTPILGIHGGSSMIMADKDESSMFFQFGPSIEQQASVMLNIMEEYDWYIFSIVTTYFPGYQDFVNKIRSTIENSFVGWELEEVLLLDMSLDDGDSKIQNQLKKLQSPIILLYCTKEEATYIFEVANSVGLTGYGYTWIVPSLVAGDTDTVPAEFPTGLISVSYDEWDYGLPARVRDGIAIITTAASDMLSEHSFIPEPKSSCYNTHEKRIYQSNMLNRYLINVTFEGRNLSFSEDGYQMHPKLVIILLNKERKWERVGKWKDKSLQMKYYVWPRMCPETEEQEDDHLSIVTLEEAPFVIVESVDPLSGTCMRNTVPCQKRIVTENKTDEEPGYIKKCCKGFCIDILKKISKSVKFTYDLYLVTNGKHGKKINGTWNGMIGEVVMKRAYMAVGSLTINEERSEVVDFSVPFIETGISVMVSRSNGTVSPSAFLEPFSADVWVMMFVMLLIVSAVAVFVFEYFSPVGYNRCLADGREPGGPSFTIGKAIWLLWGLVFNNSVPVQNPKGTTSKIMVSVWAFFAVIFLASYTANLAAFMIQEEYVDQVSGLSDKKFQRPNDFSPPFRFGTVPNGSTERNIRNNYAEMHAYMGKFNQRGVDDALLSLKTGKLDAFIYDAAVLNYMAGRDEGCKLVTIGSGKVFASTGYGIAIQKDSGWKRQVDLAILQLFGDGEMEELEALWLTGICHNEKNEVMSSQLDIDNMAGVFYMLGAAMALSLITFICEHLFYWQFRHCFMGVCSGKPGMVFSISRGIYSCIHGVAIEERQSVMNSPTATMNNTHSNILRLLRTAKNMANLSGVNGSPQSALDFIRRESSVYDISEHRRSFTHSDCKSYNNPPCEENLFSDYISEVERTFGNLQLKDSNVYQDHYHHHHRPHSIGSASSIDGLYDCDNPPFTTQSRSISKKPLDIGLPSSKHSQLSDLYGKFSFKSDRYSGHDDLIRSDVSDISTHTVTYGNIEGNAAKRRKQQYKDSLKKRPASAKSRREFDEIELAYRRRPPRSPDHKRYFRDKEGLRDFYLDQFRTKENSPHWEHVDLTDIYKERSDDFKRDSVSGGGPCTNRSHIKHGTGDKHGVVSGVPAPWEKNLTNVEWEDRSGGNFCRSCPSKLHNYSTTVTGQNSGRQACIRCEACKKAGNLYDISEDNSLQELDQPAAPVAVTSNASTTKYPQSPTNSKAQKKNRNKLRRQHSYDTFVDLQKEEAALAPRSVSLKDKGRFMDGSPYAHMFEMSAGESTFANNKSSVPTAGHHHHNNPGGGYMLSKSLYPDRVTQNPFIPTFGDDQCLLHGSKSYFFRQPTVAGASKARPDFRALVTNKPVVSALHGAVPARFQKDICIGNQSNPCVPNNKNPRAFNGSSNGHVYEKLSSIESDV
row,SMILES,IC50 [µM]
1,"CC(C)(O)c1ccc(OCc2cn(-c3ccc(F)c(C(F)(F)F)c3)nn2)nc1 [Example 433, 2-[6-[[1-[4-Fluoro-3-(trifluoromethyl)phenyl]triazol-4-yl]methoxy]-3-pyridyl]propan-2-ol]",1.11
2,"CCNc1ccnc(OCc2cn(-c3ccc(F)c(C(F)F)c3)nn2)n1 [Example 691, N-Ethyl-2-((1-(3-(difluoromethyl)-4-fluorophenyl)-1H-1,2,3-triazol-4-yl)methoxy)pyrimidin-4-amine]",0.006
3,"COC(C)(C)c1cnc(OCc2cn(-c3ccc(F)c(C(F)(F)F)c3)nn2)nc1 [Example 436, 2-[[1-[4-Fluoro-3-(trifluoromethyl)phenyl]triazol-4-yl]methoxy]-5-(1-methoxy-1-methyl-ethyl)pyrimidine]",3.26
4,"Cc1cccc(-n2cc(COc3ncc(C(F)(F)F)cn3)nn2)c1F [Example 469, 2-[[1-(2-Fluoro-3-methyl-phenyl)triazol-4-yl]methoxy]-5-(trifluoromethyl)pyrimidine]",1.06
5,"CCc1cnc(OCc2cn(-c3ccnc(C(F)(F)F)c3)nn2)nc1 [Example 667, 5-Ethyl-2-[[1-[2-(trifluoromethyl)-4-pyridyl]triazol-4-yl]methoxy]pyrimidine]",0.184
6,"CC(O)c1cnc(OCc2cn(-c3ccc(F)c(C(F)(F)F)c3)nn2)nc1 (racemic) [Example 448, (R/S)-1-[2-[[1-[4-Fluoro-3-(trifluoromethyl)phenyl]triazol-4-yl]methoxy]pyrimidin-5-yl]ethanol]",0.031
7,"Cc1nc(OCc2cn(-c3cccc(F)c3C)nn2)ncc1F [Example 465, 5-Fluoro-2-[[1-(3-fluoro-2-methyl-phenyl)triazol-4-yl]methoxy]-4-methyl-pyrimidine]",3.72
8,"COC1CN(c2cnc(OCc3cn(-c4ccc(F)c(C(F)(F)F)c4)nn3)nc2)C1 [Example 460, 2-((1-(3-(Trifluoromethyl)-4-fluorophenyl)-1H-1,2,3-triazol-4-yl)methoxy)-5-(3-methoxyazetidin-1-yl)pyrimidine]",0.726

# Same assay, conditions: standard assay; human GluN1/GluN2B, calcium flux (FLIPR), glutamate ~EC80
row,SMILES,IC50 [µM]
1,"Cc1cnc(OCc2cn(-c3ccc(F)c(C(F)F)c3)nn2)nc1 [Example 51, 2-[[1-[3-(Difluoromethyl)-4-fluoro-phenyl]triazol-4-yl]methoxy]-5-methyl-pyrimidine]",0.001
2,"FC(F)Oc1cc(-n2cc(COc3cccnn3)nn2)ccc1Cl [Example 14, 3-[[1-[4-Chloro-3-(difluoromethoxy)phenyl]triazol-4-yl]methoxy]pyridazine]",0.401
3,"Cc1ccnc(OCc2cn(-c3ccc(F)c(OC(F)F)c3)nn2)n1 [Example 64, 2-[[1-[3-(Difluoromethoxy)-4-fluoro-phenyl]triazol-4-yl]methoxy]-4-methyl-pyrimidine]",0.007
4,"COc1cnc(OCc2cn(-c3cccc(OC(F)F)c3)nn2)nc1 [Example 325, 2-[[1-[3-(Difluoromethoxy)phenyl]triazol-4-yl]methoxy]-5-methoxy-pyrimidine]",0.027
5,"COc1cnc(O[C@@H](C)c2cn(-c3ccc(Cl)c(OC(F)F)c3)nn2)nc1 [Example 381, 2-[(1S)-1-[1-[4-Chloro-3-(difluoromethoxy)phenyl]triazol-4-yl]ethoxy]-5-methoxy-pyrimidine]",0.196
6,"Cc1ccccc1-n1cc(COc2ncc(F)cn2)nn1 [Example 237, 5-Fluoro-2-[[1-(o-tolyl)triazol-4-yl]methoxy]pyrimidine]",16.6
7,"Cc1cnc(OCc2cn(-c3ccc(F)c(OC(F)F)c3)nn2)nc1 [Example 63, 2-[[1-[3-(Difluoromethoxy)-4-fluoro-phenyl]triazol-4-yl]methoxy]-5-methyl-pyrimidine]",0.003
8,"Cc1cccc(-n2cc(COc3ncc(F)c(C)n3)nn2)c1 [Example 252, 5-Fluoro-4-methyl-2-[[1-(m-tolyl)triazol-4-yl]methoxy]pyrimidine]",0.065
9,"CC(=O)c1cnc(OCc2cn(-c3cccc(C)c3)nn2)nc1 [Example 255, 1-[2-[[1-(m-Tolyl)triazol-4-yl]methoxy]pyrimidin-5-yl]ethanone]",0.224
